Common to all, as to test: NCI anticancer screen, dose series, 48 h
For assay [1], the system named is IGROV1 ovarian.
Assay [2] deals with KM12 colon.
The subject of assay [3] is HCT-15 colon.
The subject of assay [4] is MCF7 breast.
Assay [5] relates to SF-268 CNS.
For assay [6], the system named is M14 melanoma.
In assay [7] the test system is DU-145 prostate.
For assay [8], the system named is SNB-75 CNS.
Assay [9] relates to ACHN renal.
In assay [10] the test system is U251 CNS.
In assay [11] the test system is LOX IMVI melanoma.
Assay [12] relates to OVCAR-3 ovarian.
Assay [13] concerns MDA-N.

For 13 molecules, TGI and GI50 results are on record in PubChem BioAssay (NCI).

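Where inhibition never reached the appropriate level, the endpoint shown equals the highest concentration tested. Otherwise, values were interpolated linearly from a five-concentration, 48-hour dose response in 96-well plates. Here, GI50 denotes the concentration required for 50% inhibition of growth. The concentration for full growth arrest is given as TGI.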 Bounds are passed on as bounds.

On to `O=c1cc(-c2ccc3ccccc3c2)[nH]c2ncccc12`, for which the TGI in [1], in [2], in assay [3], in assay [4], in assay [5] and in [6] was > 100 µM throughout. In addition, the TGI in [7] was > 100 µM; in assay [8], 62.6 µM; in [9] it was > 100 µM; in assay [10], > 100 µM; in [11], > 100 µM; in assay [12] it was > 100 µM. The results for the GI50 in assay [10] and in [12] were 4.35 µM and 8.25 µM, respectively.

Consider `COC1=CC(=O)c2c(n[nH]c2CCNC(=O)OCc2ccccc2)C1=O`, for which the TGI came to 29 µM in assay [1]; 22.9 µM in assay [2]; 30.8 µM in assay [3]; 22.2 µM in [4]; 4.61 µM in [13]; 26.7 µM in assay [6]. Besides, the TGI in assay [9] is 27.2 µM; in [10], 26 µM; in assay [11], 23.7 µM; in assay [12], 32.2 µM.

On to `Cc1ccc(S(=O)(=O)OI(O)CC(F)(F)F)cc1`, for which the TGI in [1], in [2], in assay [3], in assay [4], in [5] and in [6] was > 100 µM in each case. Also, the TGI in assay [7], in assay [8], in assay [9], in [10], in assay [11] and in [12] was > 100 µM each time.

Regarding `O=C(NN1C(=O)C(Cl)C1c1cccc(Cl)c1)c1ccccc1O` (stereo unspecified), the TGI in [1], in [2], in [3], in assay [5], in [6] and in [8] was > 100 µM in each case. Also, the TGI in [9], in assay [10], in assay [11] and in [12] was > 100 µM in each case.

Regarding `CC(C)(C)OC(=O)NC(Cc1ccc(OCc2ccccc2)cn1)C(=O)O` (stereo unspecified), the TGI in assay [1], in assay [2], in assay [3], in assay [4], in assay [5] and in [13] was > 100 µM each time. The TGI in [7], in [9], in [10], in assay [11] and in assay [12] was > 100 µM throughout.

In the case of `COC(=O)C1Cc2c([nH]c3ccccc23)-c2[nH]c3ccccc3c2CC(NC(C)=O)C(=O)NCC(=O)NCC(=O)N1` (stereo unspecified), the TGI in assay [1], in assay [2], in [3], in [5], in assay [13] and in assay [6] was > 100 µM throughout. Moreover, the TGI in assay [7], in [8], in assay [9], in [10], in assay [11] and in assay [12] was > 100 µM in each case.

For the molecule `C/C(CC(=O)Nc1ccccc1)=N\NC(N)=S`, the TGI in [1], in assay [2], in [5], in assay [6], in [8] and in assay [10] was > 100 µM in each case. Moreover, the TGI in assay [11] and in assay [12] was > 100 µM in each case.

Regarding `COc1cccc(N2C(=O)C3c4[nH]c5ccc(C)cc5c4C4CCC(C)CC4C3C2=O)c1` (stereo unspecified), the TGI in assay [1], in assay [3], in assay [4], in assay [5], in assay [13] and in assay [6] was > 100 µM throughout. The TGI in assay [7], in [9], in assay [10], in assay [11] and in assay [12] was > 100 µM in each case.

Consider `CC(=O)OC1CC2C(C)(C)OC(=O)CC(OC(C)=O)[C@]2(C)C2CCC3(C)C(=CCC3c3ccoc3)[C@]12C` (stereo partly specified), for which the TGI is 82.8 µM in assay [1]; > 100 µM in [2]; > 100 µM in assay [3]; > 100 µM in [5]; 46.5 µM in assay [6]; 83.5 µM in assay [8]. In addition, the TGI in [9] was > 100 µM; in [10], > 100 µM; in assay [11], > 100 µM; in [12], 60 µM.

With `CN(C)c1cccc(/C=C(\C#N)c2ccccc2)c1`, the TGI in [1] is > 72.5 µM; in [2], 8.92 µM; in assay [3] it was > 58.4 µM; in assay [5], > 100 µM; in [13] it was 0.161 µM; in assay [6], > 47.2 µM. Besides, the TGI in assay [7] is 33.5 µM; in [8] it was 5.05 µM; in [9] it was > 100 µM; in assay [10], 27.1 µM; in assay [11], > 59.5 µM; in assay [12], 3.29 µM.

Take `OCCSCC/C(=N\N=C(/CCSCCO)c1ccccc1)c1ccccc1`: the TGI in assay [1], in assay [2], in assay [3], in [5], in assay [6] and in [9] was > 100 µM each time. In addition, the TGI in assay [10], in [11] and in assay [12] was > 100 µM each time.

Regarding `O=c1[nH]c2cc3[nH]c(=O)c(=O)[nH]c3cc2[nH]c1=O`, the TGI in assay [1], in [2], in assay [3], in assay [4], in assay [5] and in [6] was > 100 µM throughout. Moreover, the TGI in [7], in assay [8], in assay [9], in [10], in [11] and in assay [12] was > 100 µM in each case.

Turning to `C=CCN(N=O)C(=O)N(CCCCC(NC(C)=O)C(=O)NCc1ccccc1)Cc1ccccc1` (stereo unspecified), the TGI is > 100 µM in [1]; > 100 µM in [2]; > 100 µM in [3]; > 100 µM in assay [5]; 62.4 µM in [6]; > 100 µM in assay [8]. For the same molecule, the TGI in [9] is > 100 µM; in [10] it was > 100 µM; in assay [11] it was 55.3 µM; in [12], > 100 µM.
